US11332459B2 (TEIJIN PHARMA LIMITED, priority 2017, dated 2022)
Structures can show the parent of a compound that is named as a salt.

Biological target: T1, human TRPC6 (Homo sapiens, UniProt Q9Y210)
T1 construct: expressed in transfected cells
T1 sequence (Q9Y210 1-931): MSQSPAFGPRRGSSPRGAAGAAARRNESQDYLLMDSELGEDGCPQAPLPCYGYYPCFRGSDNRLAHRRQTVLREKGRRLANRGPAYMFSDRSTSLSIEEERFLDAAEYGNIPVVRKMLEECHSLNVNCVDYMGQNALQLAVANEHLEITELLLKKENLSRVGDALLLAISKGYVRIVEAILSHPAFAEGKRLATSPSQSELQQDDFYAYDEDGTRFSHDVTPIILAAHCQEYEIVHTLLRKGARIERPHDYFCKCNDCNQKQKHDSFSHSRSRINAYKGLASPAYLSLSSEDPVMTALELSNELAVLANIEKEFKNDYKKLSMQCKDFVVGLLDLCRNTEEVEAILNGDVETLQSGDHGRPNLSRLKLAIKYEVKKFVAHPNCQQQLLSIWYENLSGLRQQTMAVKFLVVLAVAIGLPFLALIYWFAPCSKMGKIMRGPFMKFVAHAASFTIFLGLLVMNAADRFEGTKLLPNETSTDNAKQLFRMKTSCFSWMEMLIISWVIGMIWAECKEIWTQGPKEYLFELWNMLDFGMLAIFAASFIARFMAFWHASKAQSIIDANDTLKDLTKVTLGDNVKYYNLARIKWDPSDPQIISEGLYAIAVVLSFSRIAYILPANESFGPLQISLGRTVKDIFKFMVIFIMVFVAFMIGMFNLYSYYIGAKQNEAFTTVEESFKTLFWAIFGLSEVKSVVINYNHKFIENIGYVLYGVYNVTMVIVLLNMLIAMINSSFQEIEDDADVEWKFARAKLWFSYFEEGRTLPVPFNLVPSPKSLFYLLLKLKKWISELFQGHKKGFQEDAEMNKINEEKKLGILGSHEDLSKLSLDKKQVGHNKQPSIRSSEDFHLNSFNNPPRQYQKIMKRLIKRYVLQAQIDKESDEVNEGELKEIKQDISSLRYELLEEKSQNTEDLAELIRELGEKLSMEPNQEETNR
Assay: TRPC6 calcium flux assay (FLIPR, OAG-stimulated calcium influx)
Type: cell-based
Conditions: HEK293 cells stably transfected with human TRPC6, read-out: hTRPC6 Potency
Method in brief: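 HEK293 cells stably expressing human TRPC6, loaded with calcium dye 90–120 min at RT, then given compound for 25 min before OAG (50 uM final, 0.5% DMSO) in HEPES buffer pH 7.2 with 2 mM CaCl2. Background-subtracted FLIPR peak over 180 s normalized to OAG vs buffer; IC50 from dose plot.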

Row | Structure (SMILES) | IC50 [µM]
1 | N[C@@H]1CCCN(c2nc3ccccc3n2Cc2ccc(Cl)cc2Cl)C1 [Example 395, (R)-1-(1-(2,4-dichlorobenzyl)-1H-benzo[d]imidazol-2-yl)piperidin-3-amine] | 1.12
2 | C[C@H](c1ccc(C#N)cc1)n1c(N2CCC[C@@H](N)C2)nc2ccccc21 [Example 398, 4-((R)-1-(2-((R)-3-aminopiperidin-1-yl)-1H-benzo[d]imidazol-1-yl)ethyl)benzonitrile] | 0.0874
3 | N#Cc1cccc(Cn2c(N3CCC[C@@H](N)C3)nc3ccccc32)c1 [Example 400, (R)-3-((2-(3-aminopiperidin-1-yl)-1H-benzo[d]imidazol-1-yl)methyl)benzonitrile] | 16.5
4 | COc1ccc2nc(N3CCC(F)(F)[C@H](N)C3)n(Cc3ccc(C#N)cc3)c2c1 [Example 406, (R)-4-((2-(3-amino-4,4-difluoropiperidin-1-yl)-6-methoxy-1H-benzo[d]imidazol-1-yl)methyl)benzonitrile] | 0.000447
5 | N#Cc1ccc(Cn2c(N3CC[C@H](F)[C@H](N)C3)nc3c(Cl)cccc32)cc1 [Example 409] | 0.00104
6 | COc1cccc2c1nc(N1CC[C@@H](F)[C@H](N)C1)n2Cc1ccc(C#N)cc1 [Example 411, 4-((2-((3R,4R)-3-amino-4-fluoropiperidin-1-yl)-4-methoxy-1H-benzo[d]imidazol-1-yl)methyl)benzonitrile] | 0.00268
7 | N#Cc1ccc(Cn2c(N3CC[C@@H](F)[C@H](N)C3)nc3ccncc32)cc1 [Example 413, 4-((2-((3R,4R)-3-amino-4-fluoropiperidin-1-yl)-3H-imidazo[4,5-c]pyridin-3-yl)methyl)benzonitrile] | 0.221
8 | N#Cc1ccc2c(c1)CC[C@H]2n1c(N2CCC[C@H](N)C2)nc2ccccc21 [Example 423, (R)-1-(2-((S)-3-aminopiperidin-1-yl)-1H-benzo[d]imidazol-1-yl)-2,3-dihydro-1H-indene-5-carbonitrile] | 0.151
9 | N#Cc1ccc2c(c1)CC[C@@H]2n1c(N2CCC[C@H](N)C2)nc2ccccc21 [Example 424, (S)-1-(2-((S)-3-aminopiperidin-1-yl)-1H-benzo[d]imidazol-1-yl)-2,3-dihydro-1H-indene-5-carbonitrile] | 0.000707
10 | COc1ccc(Cn2c(N3CC[C@@H](F)[C@H](N)C3)nc3ccccc32)nc1 [Example 425, (3R,4R)-4-fluoro-1-(1-((5-methoxypyridin-2-yl)methyl)-1H-benzo[d]imidazol-2-yl)piperidin-3-amine] | 0.113
11 | N#CC1CN(C(=O)Cn2c(N3CC[C@@H](F)[C@H](N)C3)nc3cc(F)c(F)cc32)C1 [Example 426, 1-(2-(2-((3R,4R)-3-amino-4-fluoropiperidin-1-yl)-5,6-difluoro-1H-benzo[d]imidazol-1-yl)acetyl)azetidine-3-carbonitrile] | 0.933
12 | CC(C)(C)OC1CN(C(=O)Cn2c(N3CC[C@@H](F)[C@H](N)C3)nc3cc(F)c(F)cc32)C1 [Example 427, 2-(2-((3R,4R)-3-amino-4-fluoropiperidin-1-yl)-5,6-difluoro-1H-benzo[d]imidazol-1-yl)-1-(3-(tert-butoxy)azetidin-1-yl)ethan-1-one] | > 1.75
13 | CC(C)C1CN(C(=O)Cn2c(N3CC[C@@H](F)[C@H](N)C3)nc3cc(F)c(F)cc32)C1 [Example 429, 2-(2-((3R,4R)-3-amino-4-fluoropiperidin-1-yl)-5,6-difluoro-1H-benzo[d]imidazol-1-yl)-1-(3-isopropylazetidin-1-yl)ethanone] | > 3.75

The remaining compounds from weak to strong by IC50, led by results:

Row | IC50 [µM] | Structure (SMILES)
14 | 18.2 | COc1cc(C#N)ccc1Cn1c(N2CCC[C@@H](N)C2)nc2ccccc21 [Example 396, (R)-4-((2-(3-aminopiperidin-1-yl)-1H-benzo[d]imidazol-1-yl)methyl)-3-methoxybenzonitrile]
15 | 1.58 | N#Cc1cc(Cl)ccc1Cn1c(N2CCC[C@@H](N)C2)nc2ccccc21 [Example 397, (R)-2-((2-(3-aminopiperidin-1-yl)-1H-benzo[d]imidazol-1-yl)methyl)-5-chlorobenzonitrile]
16 | 0.732 | N#Cc1ccc(Cn2c(N3CCC[C@@H](N)C3)nc3ccccc32)c(Cl)c1 [Example 394, (R)-4-((2-(3-aminopiperidin-1-yl)-1H-benzo[d]imidazol-1-yl)methyl)-3-chlorobenzonitrile]
17 | 0.322 | N#Cc1ccc(Cn2c(N3CC[C@@H](F)[C@H](N)C3)nc3cnccc32)cc1 [Example 412, 4-((2-((3R,4R)-3-amino-4-fluoropiperidin-1-yl)-1H-imidazo[4,5-c]pyridin-1-yl)methyl)benzonitrile]
18 | 0.128 | N#Cc1ccc(Cn2c(N3CCC[C@H](N)C3)nc3cccnc32)cc1 [Example 419, (S)-4-((2-(3-aminopiperidin-1-yl)-3H-imidazo[4,5-b]pyridin-3-yl)methyl)benzonitrile hydrochloride]
19 | 0.0183 | N[C@@H]1CN(c2nc3cc(F)c(F)cc3n2CC(=O)N2CC(F)(F)C2)CC[C@H]1F [Example 428, 2-(2-((3R,4R)-3-amino-4-fluoropiperidin-1-yl)-5,6-difluoro-1H-benzo[d]imidazol-1-yl)-1-(3,3-difluoroazetidin-1-yl)ethanone]
20 | 0.0127 | N#Cc1ccc(Cn2c(N3CC[C@@H](F)[C@H](N)C3)nc3ncccc32)cc1 [Example 417, 4-((2-((3R,4R)-3-amino-4-fluoropiperidin-1-yl)-1H-imidazo[4,5-b]pyridin-1-yl)methyl)benzonitrile]
21 | 0.0105 | COc1cccc2c1nc(N1CCC(F)(F)[C@H](N)C1)n2Cc1ccc(C#N)cc1 [Example 410, (R)-4-((2-(3-amino-4,4-difluoropiperidin-1-yl)-4-methoxy-1H-benzo[d]imidazol-1-yl)methyl)benzonitrile]
22 | 0.00585 | N#Cc1ccc(Cn2c(N3CCC(F)(F)[C@H](N)C3)nc3c(Cl)cccc32)cc1 [Example 407, (R)-4-((2-(3-amino-4,4-difluoropiperidin-1-yl)-4-chloro-1H-benzo[d]imidazol-1-yl)methyl)benzonitrile]
23 | 0.00235 | N#Cc1ccc(Cn2c(N3CCC[C@H](N)C3)nc3cc(Cl)ccc32)cc1 [Example 422, (S)-4-((2-(3-aminopiperidin-1-yl)-5-chloro-1H-benzo[d]imidazol-1-yl)methyl)benzonitrile]
24 | 0.00167 | COc1ccc2nc(N3CCC[C@H](N)C3)n(Cc3ccc(C#N)cc3)c2n1 [Example 404, (S)-4-((2-(3-aminopiperidin-1-yl)-5-methoxy-3H-imidazo[4,5-b]pyridin-3-yl)methyl)benzonitrile hydrochloride]
25 | 0.00133 | COc1ccc2nc(N3CCC[C@H](N)C3)n(Cc3ccc(C#N)cc3)c2c1 [Example 402, (S)-4-((2-(3-aminopiperidin-1-yl)-6-methoxy-1H-benzo[d]imidazol-1-yl)methyl)benzonitrile hydrochloride]
26 | 0.000924 | N#Cc1ccc(Cn2c(N3CC[C@@H](F)[C@H](N)C3)nc3c(Cl)cccc32)cc1 [Example 408, 4-((2-((3R,4R)-3-amino-4-fluoropiperidin-1-yl)-4-chloro-1H-benzo[d]imidazol-1-yl)methyl)benzonitrile]
27 | 0.000708 | N#Cc1ccc(Cn2c(N3CCC(F)(F)[C@H](N)C3)nc3ccc(Cl)cc32)cc1 [Example 405]
28 | 0.0006 | N#Cc1ccc(Cn2c(N3CC[C@@H](F)[C@H](N)C3)nc3ccc(Cl)cc32)cc1 [Example 420, 4-((2-((3R,4R)-3-amino-4-fluoropiperidin-1-yl)-6-chloro-1H-benzo[d]imidazol-1-yl)methyl)benzonitrile hydrochloride]
29 | 0.000584 | N#Cc1ccc(Cn2c(N3CCC[C@H](N)C3)nc3c(Cl)cccc32)cc1 [Example 418, (S)-4-((2-(3-aminopiperidin-1-yl)-4-chloro-1H-benzo[d]imidazol-1-yl)methyl)benzonitrile 2,2,2-trifluoroacetate]
30 | 0.00054 | N#Cc1ccc(Cn2c(N3CCC[C@H](N)C3)nc3ccc(Cl)cc32)cc1 [Example 421, (S)-4-((2-(3-aminopiperidin-1-yl)-6-chloro-1H-benzo[d]imidazol-1-yl)methyl)benzonitrile]
31 | 0.000456 | N#Cc1ccc(Cn2c(N3CC[C@H](F)[C@H](N)C3)nc3ccc(Cl)cc32)cc1 [Example 401, 4-((2-((3R,4S)-3-amino-4-fluoropiperidin-1-yl)-6-chloro-1H-benzo[d]imidazol-1-yl)methyl)benzonitrile hydrochloride]
32 | 0.000395 | COc1ccc2nc(N3CC[C@H](F)[C@H](N)C3)n(Cc3ccc(C#N)cc3)c2c1 [Example 403, 4-((2-((3R,4S)-3-amino-4-fluoropiperidin-1-yl)-6-methoxy-1H-benzo[d]imidazol-1-yl)methyl)benzonitrile]
